In the NIST ThermoML archive (doi:10.1016/j.jct.2018.12.012):

Assay: xn = mol fraction of the nth substance listed
Conditions: 100 kPa, Liquid; for speed of sound: Frequency=3 MHz, Single path-length method; for mass density: Vibrating tube method

CCCCNCCCC [dibutylamine] + CCCC(C)O
Conditions | mass density, 293.15 K [kg/m3] | mass density, 298.15 K [kg/m3] | mass density, 303.15 K [kg/m3] | mass density, 308.15 K [kg/m3] | speed of sound, 293.15 K [m/s] | speed of sound, 298.15 K [m/s] | speed of sound, 303.15 K [m/s] | speed of sound, 308.15 K [m/s]
x1 = 0.1007 | 804.553 | 800.484 | 796.354 | 792.163 | 1257.5 | 1238.8 | 1220.2 | 1201.8
x1 = 0.1998 | 799.644 | 795.528 | 791.368 | 787.153 | 1261.6 | 1243 | 1224.2 | 1205.4
x1 = 0.3001 | 794.588 | 790.443 | 786.26 | 782.034 | 1264.1 | 1245.1 | 1226.2 | 1207.6
x1 = 0.4 | 789.453 | 785.286 | 781.088 | 776.854 | 1265 | 1246.3 | 1227.2 | 1208.3
x1 = 0.5004 | 784.348 | 780.174 | 775.972 | 771.739 | 1265.7 | 1246.5 | 1227.4 | 1208.4
x1 = 0.6 | 779.579 | 775.399 | 771.197 | 766.971 | 1266 | 1247 | 1227.7 | 1208.5
x1 = 0.7004 | 774.754 | 770.581 | 766.391 | 762.183 | 1266.2 | 1246.7 | 1227.3 | 1208.2
x1 = 0.7993 | 770.026 | 765.866 | 761.694 | 757.505 | 1265.8 | 1246.4 | 1227.8 | 1207.2
x1 = 0.9004 | 765.576 | 761.434 | 757.282 | 753.116 | 1265.8 | 1245.8 | 1226 | 1206.7
x1 = 1 | 759.579 | 755.48 | 751.374 | 747.268 | 1260.1 | 1240.1 | 1220.3 | 1200.6

CC(C)NC(C)C [diisopropylamine] + CCC(C)O
Conditions | mass density, 293.15 K [kg/m3] | mass density, 298.15 K [kg/m3] | mass density, 303.15 K [kg/m3] | mass density, 308.15 K [kg/m3] | speed of sound, 293.15 K [m/s] | speed of sound, 298.15 K [m/s] | speed of sound, 303.15 K [m/s] | speed of sound, 308.15 K [m/s]
x1 = 0.1005 | 799.801 | 795.472 | 791.07 | 786.592 | 1230.8 | 1211.7 | 1192.3 | 1173.4
x1 = 0.1994 | 792.039 | 787.516 | 782.932 | 778.279 | 1226.2 | 1205.7 | 1185.3 | 1165
x1 = 0.3003 | 783.508 | 778.829 | 774.115 | 769.331 | 1217.3 | 1196.2 | 1175.6 | 1154
x1 = 0.3999 | 774.58 | 769.813 | 765.003 | 760.146 | 1205.6 | 1183.8 | 1162.3 | 1141.1
x1 = 0.5 | 764.776 | 759.954 | 755.099 | 750.197 | 1191 | 1169.2 | 1147.4 | 1125.6
x1 = 0.5961 | 755.456 | 750.604 | 745.72 | 740.801 | 1176.6 | 1154.3 | 1132.2 | 1110.4
x1 = 0.6964 | 745.553 | 740.705 | 735.88 | 731.103 | 1160.7 | 1139 | 1116.3 | 1094.2
x1 = 0.7997 | 736.007 | 731.125 | 726.228 | 721.299 | 1145.2 | 1122.7 | 1100.3 | 1078.3
x1 = 0.8967 | 726.62 | 721.759 | 716.873 | 711.96 | 1129.7 | 1107 | 1084.5 | 1062.5
x1 = 1 | 717.305 | 712.441 | 707.55 | 702.661 | 1116.4 | 1093.8 | 1071.1 | 1043.5

CCCCNCCCC [dibutylamine] + CCC(C)O
Conditions | mass density, 293.15 K [kg/m3] | mass density, 298.15 K [kg/m3] | mass density, 303.15 K [kg/m3] | mass density, 308.15 K [kg/m3] | speed of sound, 293.15 K [m/s] | speed of sound, 298.15 K [m/s] | speed of sound, 303.15 K [m/s] | speed of sound, 308.15 K [m/s]
x1 = 0.0995 | 802.339 | 798.045 | 793.785 | 789.452 | 1242.3 | 1223.7 | 1205 | 1186.7
x1 = 0.2027 | 796.429 | 792.197 | 787.914 | 783.574 | 1249.9 | 1231 | 1211.9 | 1193.6
x1 = 0.3027 | 791.522 | 787.26 | 782.952 | 778.597 | 1254.5 | 1235.3 | 1216.2 | 1197.1
x1 = 0.3993 | 786.764 | 782.487 | 778.177 | 773.83 | 1257.8 | 1238.8 | 1219.4 | 1200.1
x1 = 0.4995 | 781.846 | 777.578 | 773.281 | 768.951 | 1260.6 | 1241.1 | 1221.7 | 1202.6
x1 = 0.6007 | 776.991 | 772.741 | 768.441 | 764.17 | 1261 | 1241.4 | 1221.9 | 1202.6
x1 = 0.7 | 772.61 | 768.394 | 764.156 | 759.896 | 1261.9 | 1242.7 | 1223.1 | 1203.9
x1 = 0.8002 | 768.643 | 764.449 | 760.24 | 756.011 | 1263.6 | 1243.7 | 1224 | 1204.4
x1 = 0.8989 | 764.755 | 760.595 | 756.428 | 752.248 | 1264.1 | 1244.4 | 1224.6 | 1204.8
x1 = 1 | 759.579 | 755.48 | 751.374 | 747.268 | 1260.1 | 1240.1 | 1220.3 | 1200.6

CC(C)NC(C)C [diisopropylamine] + CCCC(C)O
Conditions | mass density, 293.15 K [kg/m3] | mass density, 298.15 K [kg/m3] | mass density, 303.15 K [kg/m3] | mass density, 308.15 K [kg/m3] | speed of sound, 293.15 K [m/s] | speed of sound, 298.15 K [m/s] | speed of sound, 303.15 K [m/s] | speed of sound, 308.15 K [m/s]
x1 = 0.0998 | 803.093 | 798.887 | 794.621 | 790.277 | 1248.1 | 1229 | 1209.9 | 1190.3
x1 = 0.2001 | 795.724 | 791.357 | 786.936 | 782.457 | 1241.1 | 1220.9 | 1200.8 | 1181.5
x1 = 0.3 | 787.848 | 783.455 | 778.721 | 774.03 | 1230 | 1209.5 | 1189.3 | 1168.8
x1 = 0.4001 | 778.463 | 773.871 | 769.242 | 764.565 | 1216.8 | 1196.3 | 1175.3 | 1154.3
x1 = 0.5006 | 768.901 | 764.237 | 759.54 | 754.802 | 1201.8 | 1180.2 | 1158.9 | 1137.8
x1 = 0.6001 | 758.906 | 754.192 | 749.437 | 744.665 | 1185.2 | 1164 | 1142.1 | 1120.9
x1 = 0.678 | 751.419 | 746.673 | 741.893 | 737.079 | 1172.8 | 1151 | 1129.1 | 1107.4
x1 = 0.7975 | 738.446 | 733.65 | 728.827 | 723.973 | 1152.6 | 1130.2 | 1108.1 | 1086.2
x1 = 0.8993 | 728.166 | 723.262 | 718.39 | 713.692 | 1132.8 | 1110.2 | 1087.8 | 1063.8
x1 = 1 | 717.305 | 712.441 | 707.55 | 702.661 | 1116.4 | 1093.8 | 1071.1 | 1043.5
